Where a name gives a salt, the structure may show the parent alone.
Columns and labels:
Format in all cases: in vivo
[1] = test system: Human hepatocellular carcinoma line SNU398 cells; test: Antitumor effect in human hepatocellular carcinoma line SNU398 transplantation model, nude mice
Method: Human hepatocellular carcinoma line SNU398 cells (ATCC) were cultured by using RPMI1640 medium (Wako Pure Chemical Industries, Ltd.) containing 10% FBS in a 5% CO2 incubator under conditions of 37° C. When the cells became an approximately 80% confluent state, the cells were recovered by using trypsin-EDTA. A suspension was prepared by adding Hank's balanced salt solution containing 50% Matrigel to the cells so as to be 5.0×10^7 cells/mL. 0.1 mL of the obtained cell suspension was subcutaneously transplanted to the sides of the bodies of eight nude mice (CAnN.Cg-Foxn1^nu/CrlCrlj, Charles River Laboratories Japan, Inc.) each of a control group, an E7386 50 mg/kg alone administration group, a lenvatinib mesylate 10 mg/kg alone administration group, and a combined administration group of 12.5, 25 or 50 mg/kg E7386 and 10 mg/kg lenvatinib mesylate. From 9 days after the transplantation, E7386 (12.5, 25, or 50 mg/kg, b.d.s., 14 days, oral administration) and lenvatinib mesylate (10 mg/kg, q.d., 14 days, oral administration) were administered alone or in combination to the alone administration group or the combined administration group. For the administration, E7386 was dissolved in 0.1 mol/L hydrochloric acid, and lenvatinib mesylate was dissolved in 3 mmol/L hydrochloric acid. Any drug was not administered to the control group.
When the start day of administration was defined as day 1, the major axis and minor axis of tumor developed in each mouse were then measured at day 6, day 9, day 12, and day 15 by using Digimatic Caliper (Mitutoyo Corp.).
(§1) The tumor volume and the relative tumor volume (RTV) were calculated according to the following expressions. Tumor volume (mm^3)=Tumor major axis (mm)×Tumor minor axis^2 (mm^2)/2 Relative tumor volume (RTV)=Tumor volume at the measurement day/Tumor volume at the start day of administration

[2] = test system: Human colorectal cancer line Colo-205 cells; test: Antitumor effect in human colorectal cancer line Colo-205 transplantation model, nude mice
Method: Human colorectal cancer line Colo-205 cells (ATCC) were cultured by using RPMI1640 medium (Wako Pure Chemical Industries, Ltd.) containing 10% FBS in a 5% CO2 incubator under conditions of 37° C. When the cells became an approximately 80% confluent state, the cells were recovered by using trypsin-EDTA. A suspension was prepared by adding Hank's balanced salt solution to the cells so as to be 5.0×10^7 cells/mL. 0.1 mL of the obtained cell suspension was subcutaneously transplanted to the sides of the bodies of five nude mice (CAnN.Cg-Foxn1^nu/CrlCrlj, Charles River Laboratories Japan, Inc.) each of a control group, an E7386 50 mg/kg alone administration group, a lenvatinib mesylate 10 mg/kg alone administration group, and a combined administration group of 50 mg/kg E7386 and 10 mg/kg lenvatinib mesylate. From 8 days after the transplantation, E7386 (50 mg/kg, q.d., 11 days, oral administration) and lenvatinib mesylate (10 mg/kg, q.d., 11 days, oral administration) were administered alone or in combination to the alone administration group or the combined administration group. For the administration, E73 86 was dissolved in 0.1 mol/L hydrochloric acid, and lenvatinib mesylate was dissolved in 3 mmol/L hydrochloric acid. Any drug was not administered to the control group.
When the start day of administration was defined as day 1, the major axis and minor axis of tumor developed in each mouse were then measured at day 4, day 8, and day 12 by using Digimatic Caliper (Mitutoyo Corp.).
as §1

[3] = test system: human melanoma cell line SEKI; test: Antitumor effect in human melanoma cell line SEKI transplantation model, nude mice
Method: A human melanoma cell line SEKI (JCRB Cell Bank) was cultured by using RPMI1640 medium (Sigma-Aldrich Co. LLC) containing 10% FBS in a 5% CO2 incubator under conditions of 37° C. When the cells became an approximately 80% confluent state, the cells were recovered by using trypsin-EDTA. A suspension was prepared by adding Hank's balanced salt solution containing 50% Matrigel to the cells so as to be 5.0×10^7 cells/mL. 0.1 mL of the obtained cell suspension was subcutaneously transplanted to the sides of the bodies of six nude mice (CAnN.Cg-Foxn1^nu/CrlCrlj, Charles River Laboratories Japan, Inc.) each of a control group, an E7386 12.5 or 25 mg/kg alone administration group, a lenvatinib mesylate 10 mg/kg alone administration group, and a combined administration group of 12.5 or 25 mg/kg E7386 and 10 mg/kg lenvatinib mesylate. From 13 days after the transplantation, E7386 (12.5 or 25 mg/kg, b.d.s., 14 days, oral administration) and lenvatinib mesylate (10 mg/kg, q.d., 14 days, oral administration) were administered alone or in combination to the alone administration group or the combined administration group. For the administration, E7386 was dissolved in 0.1 mol/L hydrochloric acid, and lenvatinib mesylate was dissolved in 3 mmol/L hydrochloric acid. 0.1 mol/L hydrochloric acid (b.d.s., 14 days) was administered to the control group.
When the start day of administration was defined as day 1, the major axis and minor axis of tumor developed in each mouse were then measured at day 4, day 8, day 11, and day 15 by using Digimatic Caliper (Mitutoyo Corp.).
as §1

[4] = Day 12, lenvatinib mesylate 10 mg/kg q.d. oral alone
[5] = Day 15, lenvatinib mesylate 10 mg/kg q.d. oral alone
[6] = Day 4, lenvatinib mesylate 10 mg/kg q.d. oral alone
[7] = Day 8, lenvatinib mesylate 10 mg/kg q.d. oral alone

C=CCN1CC(=O)N2[C@@H](Cc3ccc(O)cc3F)C(=O)N(Cc3cccc(N4CC(N5CCN(CC)CC5)C4)n3)C[C@@H]2N1C(=O)NCc1ccccc1 [E7386, (6S,9aS)—N-Benzyl-8-({6-[3-(4-ethylpiperazin-1-yl)azetidin-1-yl]pyridin-2-yl}methyl)-6-(2-fluoro-4-hydroxybenzyl)-4,7-dioxo-2-(prop-2-en-1-yl)hexahydro-2H-pyrazino[2,1-c][1,2,4]triazine-1(6H)-carboxamide]
Relative tumor volume (RTV), mean±SD ([1]; Day 6, E7386 50 mg/kg b.d.s. oral alone): 3.74 ± 0.75 | Relative tumor volume (RTV), mean±SD ([1]; Day 9, E7386 50 mg/kg b.d.s. oral alone): 6.31 ± 1.74 | Relative tumor volume (RTV), mean±SD ([1]; Day 12, E7386 50 mg/kg b.d.s. oral alone): 7.33 ± 0.89 | Relative tumor volume (RTV), mean±SD ([1]; Day 15, E7386 50 mg/kg b.d.s. oral alone): 10.1 ± 1.03 | Relative tumor volume (RTV), mean±SD ([2]; Day 4, E7386 50 mg/kg q.d. oral alone): 1.98 ± 0.24 | Relative tumor volume (RTV), mean±SD ([2]; Day 8, E7386 50 mg/kg q.d. oral alone): 3.87 ± 0.74 | Relative tumor volume (RTV), mean±SD ([2]; Day 12, E7386 50 mg/kg q.d. oral alone): 4.94 ± 1.41 | Relative tumor volume (RTV), mean±SD ([3]; Day 4, E7386 12.5 mg/kg b.d.s. oral alone): 1.65 ± 0.22 | Relative tumor volume (RTV), mean±SD ([3]; Day 4, E7386 25 mg/kg b.d.s. oral alone): 1.56 ± 0.21 | Relative tumor volume (RTV), mean±SD ([3]; Day 8, E7386 12.5 mg/kg b.d.s. oral alone): 3.02 ± 0.31 | Relative tumor volume (RTV), mean±SD ([3]; Day 8, E7386 25 mg/kg b.d.s. oral alone): 2.94 ± 0.22 | Relative tumor volume (RTV), mean±SD ([3]; Day 11, E7386 12.5 mg/kg b.d.s. oral alone): 4.19 ± 0.80 | Relative tumor volume (RTV), mean±SD ([3]; Day 11, E7386 25 mg/kg b.d.s. oral alone): 4.35 ± 0.36 | Relative tumor volume (RTV), mean±SD ([3]; Day 15, E7386 12.5 mg/kg b.d.s. oral alone): 5.53 ± 1.21 | Relative tumor volume (RTV), mean±SD ([3]; Day 15, E7386 25 mg/kg b.d.s. oral alone): 5.90 ± 1.34

COc1cc2nccc(Oc3ccc(NC(=O)NC4CC4)c(Cl)c3)c2cc1C(N)=O [Lenvatinib mesylate, 4-(3-chloro-4-(cyclopropylaminocarbonyl)aminophenoxy)-7-methoxy-6-quinolinecarboxamide, reference compound]
Relative tumor volume (RTV), mean±SD ([1]; Day 6, lenvatinib mesylate 10 mg/kg q.d. oral alone): 3.98 ± 1.00 | Relative tumor volume (RTV), mean±SD ([1]; Day 9, lenvatinib mesylate 10 mg/kg q.d. oral alone): 6.48 ± 1.74 | Relative tumor volume (RTV), mean±SD [1, 4]: 8.33 ± 2.08 | Relative tumor volume (RTV), mean±SD [1, 5]: 9.71 ± 2.30 | Relative tumor volume (RTV), mean±SD [2, 6]: 1.41 ± 0.30 | Relative tumor volume (RTV), mean±SD [2, 7]: 1.75 ± 0.13 | Relative tumor volume (RTV), mean±SD [2, 4]: 1.94 ± 0.31 | Relative tumor volume (RTV), mean±SD [3, 6]: 1.60 ± 0.22 | Relative tumor volume (RTV), mean±SD [3, 7]: 2.66 ± 0.46 | Relative tumor volume (RTV), mean±SD ([3]; Day 11, lenvatinib mesylate 10 mg/kg q.d. oral alone): 3.81 ± 0.80 | Relative tumor volume (RTV), mean±SD [3, 5]: 4.67 ± 1.19
